How the values were obtained:
JAK-2 enzyme = JAK-2 enzyme (Homo sapiens, UniProt O60674); test: JAK2 Inhibition Assay; format: biochemical; conditions: 12 μM ATP, 15 μM poly(Glu)4Tyr
Experimental: (§1) Compounds were screened for their ability to inhibit JAK3 using the assay shown below. Reactions were carried out in a kinase buffer containing 100 mM HEPES (pH 7.4), 1 mM DTT, 10 mM MgCl2, 25 mM NaCl, and 0.01% BSA. Substrate concentrations in the assay were 5 μM ATP (200 uCi/μmole ATP) and 1 μM poly(Glu)4Tyr. Reactions were carried out at 25° C. and 1 nM JAK3.
(§2) To each well of a 96 well polycarbonate plate was added 1.5 μl of a candidate JAK3 inhibitor along with 50 μl of kinase buffer containing […] and 10 μM ATP. This was then mixed and 50 μl of kinase buffer containing 2 nM JAK3 enzyme was added to start the reaction. After 20 minutes at room temperature (25° C.), the reaction was stopped with 50 μl of 20% trichloroacetic acid (TCA) that also contained 0.4 mM ATP. The entire contents of each well were then transferred to a 96 well glass fiber filter plate using a TomTek Cell Harvester. After washing, 60 μl of scintillation fluid was added and ^33P incorporation detected on a Perkin Elmer TopCount.
The assays were as described above in Example 3 except that JAK-2 enzyme was used, the final poly(Glu)4Tyr concentration was 15 μM, and final ATP concentration was 12 μM.

JAK3 = target: T1, JAK3 (Homo sapiens, UniProt P52333); test: JAK3 Inhibition Assay; format: biochemical; conditions: 5 μM ATP, 1 μM poly(Glu)4Tyr, 1 nM JAK3, 25° C.
T1 sequence (P52333 1-1124): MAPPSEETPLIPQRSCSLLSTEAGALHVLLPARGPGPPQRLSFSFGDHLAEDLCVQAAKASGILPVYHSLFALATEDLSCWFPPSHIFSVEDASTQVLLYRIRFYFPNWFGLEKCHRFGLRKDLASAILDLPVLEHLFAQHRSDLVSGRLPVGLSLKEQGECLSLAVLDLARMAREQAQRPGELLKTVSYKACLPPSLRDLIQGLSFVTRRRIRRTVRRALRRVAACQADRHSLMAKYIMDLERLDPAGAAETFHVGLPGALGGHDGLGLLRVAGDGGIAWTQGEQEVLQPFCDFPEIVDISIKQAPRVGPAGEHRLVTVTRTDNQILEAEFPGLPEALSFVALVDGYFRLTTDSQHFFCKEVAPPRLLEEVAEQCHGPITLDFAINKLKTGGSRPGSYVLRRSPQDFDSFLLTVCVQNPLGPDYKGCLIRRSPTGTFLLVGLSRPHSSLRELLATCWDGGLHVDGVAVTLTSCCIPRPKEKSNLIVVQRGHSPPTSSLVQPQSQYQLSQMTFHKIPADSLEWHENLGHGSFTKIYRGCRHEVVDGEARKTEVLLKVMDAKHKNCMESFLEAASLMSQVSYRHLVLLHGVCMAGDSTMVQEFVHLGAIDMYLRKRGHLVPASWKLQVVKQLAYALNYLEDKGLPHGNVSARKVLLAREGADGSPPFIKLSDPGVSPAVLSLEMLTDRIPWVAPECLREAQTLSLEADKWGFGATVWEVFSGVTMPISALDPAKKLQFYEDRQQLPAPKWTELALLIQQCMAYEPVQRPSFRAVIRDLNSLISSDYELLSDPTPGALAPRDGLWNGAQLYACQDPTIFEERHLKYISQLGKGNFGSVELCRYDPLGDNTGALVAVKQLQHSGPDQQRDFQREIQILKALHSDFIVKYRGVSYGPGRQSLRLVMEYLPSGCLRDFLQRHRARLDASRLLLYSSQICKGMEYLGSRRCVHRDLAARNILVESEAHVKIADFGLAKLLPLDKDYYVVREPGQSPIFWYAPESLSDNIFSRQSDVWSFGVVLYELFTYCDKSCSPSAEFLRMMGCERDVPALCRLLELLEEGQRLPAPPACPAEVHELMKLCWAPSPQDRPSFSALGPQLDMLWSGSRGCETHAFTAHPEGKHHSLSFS
Experimental: as §1, §2

Sequence of JAK-2 enzyme (O60674 whole entry): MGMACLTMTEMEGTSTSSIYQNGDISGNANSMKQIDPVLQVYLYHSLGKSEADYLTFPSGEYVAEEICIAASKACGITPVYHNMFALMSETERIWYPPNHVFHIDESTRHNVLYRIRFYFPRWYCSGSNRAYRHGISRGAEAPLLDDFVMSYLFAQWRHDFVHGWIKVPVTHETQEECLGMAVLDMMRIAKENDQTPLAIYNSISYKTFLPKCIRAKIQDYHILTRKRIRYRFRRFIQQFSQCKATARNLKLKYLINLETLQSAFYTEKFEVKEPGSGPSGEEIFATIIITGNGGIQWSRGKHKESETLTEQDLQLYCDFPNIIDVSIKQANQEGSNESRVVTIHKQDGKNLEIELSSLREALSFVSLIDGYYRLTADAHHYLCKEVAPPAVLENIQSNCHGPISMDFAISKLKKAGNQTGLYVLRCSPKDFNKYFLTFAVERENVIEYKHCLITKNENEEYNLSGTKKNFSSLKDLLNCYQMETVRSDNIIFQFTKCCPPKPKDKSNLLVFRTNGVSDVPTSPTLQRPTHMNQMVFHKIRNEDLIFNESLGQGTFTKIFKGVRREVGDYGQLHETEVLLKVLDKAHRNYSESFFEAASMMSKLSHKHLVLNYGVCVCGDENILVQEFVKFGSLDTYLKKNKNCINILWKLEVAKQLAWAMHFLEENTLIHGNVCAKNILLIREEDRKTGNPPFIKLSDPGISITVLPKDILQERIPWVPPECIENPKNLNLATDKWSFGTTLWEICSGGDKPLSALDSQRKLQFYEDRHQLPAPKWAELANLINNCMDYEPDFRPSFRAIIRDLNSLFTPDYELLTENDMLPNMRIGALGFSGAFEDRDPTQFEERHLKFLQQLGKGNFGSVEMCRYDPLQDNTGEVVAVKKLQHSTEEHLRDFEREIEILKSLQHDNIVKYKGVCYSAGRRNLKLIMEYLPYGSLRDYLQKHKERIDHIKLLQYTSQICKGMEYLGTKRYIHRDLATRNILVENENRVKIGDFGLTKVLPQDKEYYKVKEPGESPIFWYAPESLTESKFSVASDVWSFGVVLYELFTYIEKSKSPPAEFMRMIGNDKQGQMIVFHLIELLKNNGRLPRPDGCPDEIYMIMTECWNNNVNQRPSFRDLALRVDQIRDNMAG

| SMILES | Ki (JAK-2 enzyme) | Ki (JAK3) |
| --- | --- | --- |
| CC(C)C[C@@H](Nc1nc(-c2cn(C)c3ncc(Cl)cc23)ncc1F)C(=O)NCC(F)(F)F [Compound 22] | ≥ 500 nM | ≥ 100 nM |
| COC(=O)c1cc(N2CCC[C@@H]2C(=O)NCC(F)(F)F)nc(-c2c[nH]c3ncc(Cl)cc23)n1 [Compound 35] | ≥ 500 nM | ≥ 100 nM |
| CCCNC(=O)C(C)(C)Nc1nc(-c2c[nH]c3ncc(Cl)cc23)nc2cc(OC)c(OC)cc12 [Compound 223] |  | ≥ 100 nM |
| CNC(=O)c1cc(N2CCC[C@@H]2C(=O)NCC(F)(F)F)nc(-c2c[nH]c3ncc(Cl)cc23)n1 [Compound 317] | ≥ 500 nM | ≥ 100 nM |
| CCNC(=O)c1cc(N2CCC[C@@H]2C(=O)NCC(F)(F)F)nc(-c2c[nH]c3ncc(Cl)cc23)n1 [Compound 318] | ≥ 5000 nM | ≥ 100 nM |
| CCCNC(=O)c1cc(N2CCC[C@@H]2C(=O)NCC(F)(F)F)nc(-c2c[nH]c3ncc(Cl)cc23)n1 [Compound 319] | ≥ 5000 nM | ≥ 2000 nM |
| O=C(NC1CC1)c1cc(N2CCC[C@@H]2C(=O)NCC(F)(F)F)nc(-c2c[nH]c3ncc(Cl)cc23)n1 [Compound 320] | ≥ 500 nM | ≥ 100 nM |
| CC(C)(Nc1nc(-c2c[nH]c3ncc(Cl)cc23)ncc1C#N)C(=O)NCCC(F)(F)F [Compound 326] |  | ≥ 100 nM |
| CCN(C)C(=O)[C@H]1CCCN1c1ccnc(-c2c[nH]c3ncc(Cl)cc23)n1 [Compound 337] |  | ≥ 100 nM |
| CCOC(=O)c1cnc(-c2c[nH]c3ncc(Cl)cc23)nc1N1CCC[C@@H]1C(=O)N(C)CC(F)(F)F [Compound 338] | ≥ 500 nM | ≥ 100 nM |
| CN(CC(F)(F)F)C(=O)[C@H]1CCCN1c1nc(-c2c[nH]c3ncccc23)ncc1O [Compound 339] | ≥ 500 nM | ≥ 100 nM |
| CCC(CC)(Nc1ccnc(-c2c[nH]c3ncccc23)n1)C(=O)NCC(F)(F)F [Compound 348] | ≥ 500 nM |  |
| CN(c1nc(-c2c[nH]c3ncccc23)ncc1F)C1(C(=O)NCC(F)(F)F)CC1 [Compound 356] | ≥ 500 nM | ≥ 100 nM |
| CC(C)[C@@H](Nc1nc(-c2c[nH]c3ncccc23)ncc1F)C(=O)NCC(F)(F)F [Compound 367] | ≥ 500 nM | ≥ 100 nM |
| CC(C)CC(=O)N1CCN(c2ccnc(-c3c[nH]c4ncccc34)n2)[C@@H](C(=O)NCC(F)(F)F)C1 [Compound 369] |  | ≥ 100 nM |
| CC(C)(C)CC(=O)N1CCN(c2ccnc(-c3c[nH]c4ncccc34)n2)[C@@H](C(=O)NCC(F)(F)F)C1 [Compound 370] |  | ≥ 100 nM |
| CCCNC(=O)N1CCN(c2ccnc(-c3c[nH]c4ncccc34)n2)[C@@H](C(=O)NCC(F)(F)F)C1 [Compound 372] | ≥ 500 nM |  |
| COc1cc2nc(-c3c[nH]c4ncccc34)nc(NC(C)(C)C(=O)NCCF)c2cc1OC [Compound 388] |  | ≥ 100 nM |
| COc1cc2nc(-c3c[nH]c4ncccc34)nc(NC(C)(C)C(=O)NCC(F)F)c2cc1OC [Compound 390] |  | ≥ 100 nM |

Other lines, results leading:

| Ki (JAK-2 enzyme) | Ki (JAK3) | SMILES |
| --- | --- | --- |
| ≥ 500 nM |  | C[C@H]1CCN(c2nc(-c3c[nH]c4ncc(Cl)cc34)ncc2F)[C@@H]1C(=O)NCC(F)(F)F [Compound 9] |
| ≥ 500 nM |  | O=C(NCC(F)(F)F)C1COCCN1c1nc(-c2c[nH]c3ncc(Cl)cc23)ncc1F (stereo not drawn) [Compound 38] |
| ≥ 500 nM | ≥ 100 nM | O=C(O)c1cnc(-c2c[nH]c3ncc(Cl)cc23)nc1N1CCC[C@@H]1C(=O)NCC(F)(F)F [Compound 56] |
| ≥ 500 nM |  | CCOC(=O)c1cnc(-c2c[nH]c3ncc(Cl)cc23)nc1N1CCC[C@@H]1C(=O)NCC(F)(F)F [Compound 57] |
| ≥ 5000 nM | ≥ 2000 nM | O=C(NCC(F)(F)F)[C@@H]1CCCCN1c1nc(-c2c[nH]c3ncc(Cl)cc23)ncc1F [Compound 68] |
|  | ≥ 100 nM | O=C(NC1CC1)[C@H]1CCCN1c1nc(-c2c[nH]c3ncc(Cl)cc23)ncc1F [Compound 177] |
| ≥ 500 nM | ≥ 100 nM | O=C(NCC(F)(F)F)[C@@H]1CCCN1c1nc(-c2c[nH]c3ncccc23)ncc1F [Compound 310] |
| ≥ 500 nM | ≥ 100 nM | O=C(NCC(F)(F)F)[C@@H]1CNCCN1c1nc(-c2c[nH]c3ncccc23)ncc1F [Compound 321] |
|  | ≥ 100 nM | CC(C)NC(=O)[C@H]1CCCN1c1nc(-c2c[nH]c3ncc(Cl)cc23)ncc1F [Compound 322] |
| ≥ 500 nM | ≥ 100 nM | CCN(C)C(=O)[C@H]1CCCN1c1nc(-c2c[nH]c3ncc(Cl)cc23)ncc1F [Compound 336] |
| ≥ 500 nM | ≥ 100 nM | CN(CC(F)(F)F)C(=O)[C@H]1CCCN1c1nc(-c2c[nH]c3ncc(Cl)cc23)ncc1O [Compound 340] |
| ≥ 500 nM | ≥ 100 nM | O=C(NCC(F)(F)F)[C@H]1C[C@H](O)CN1c1nc(-c2c[nH]c3ncccc23)ncc1F [Compound 351] |
